Assay [1] addresses T1, SFRP-1 (Homo sapiens, UniProt Q8N474).
T1 sequence (Q8N474 32-314): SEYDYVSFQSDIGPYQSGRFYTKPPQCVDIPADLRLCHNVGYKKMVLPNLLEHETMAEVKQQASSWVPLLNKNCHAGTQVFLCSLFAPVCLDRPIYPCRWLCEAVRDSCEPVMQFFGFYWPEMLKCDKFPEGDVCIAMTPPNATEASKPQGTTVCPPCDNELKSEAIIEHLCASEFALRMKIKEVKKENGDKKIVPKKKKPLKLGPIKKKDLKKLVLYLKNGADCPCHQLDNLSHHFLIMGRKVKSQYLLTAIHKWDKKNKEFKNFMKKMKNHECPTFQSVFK
Description: Fluorescence polarization binding assay (competitive displacement of a probe compound from SFRP-1).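 Note: test compound competes with a fluorescent probe held by SFRP-1, seen as a drop in probe anisotropy after incubation in darkness, with anisotropy as function of rising compound dose.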 The settings on record: fluorescence anisotropy, 45 nM SFRP-1, 20 nM probe. On the technique in general: In fluorescence polarisation assays a small probe gives low polarisation when free and higher when bound to something large.

Assay [2] has as its target T1, SFRP-1. Description: Cell-based assay for in vitro measurement of SFRP-1/SARP2 antagonist activity (U2OS cells co-transfected with 16x TCF-tk-Luciferase reporter, Wnt and hSFRP-1).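 For all read-outs here: U2OS cells co-transfected with a TCF-tk luciferase reporter, a Wnt vector, hSFRP-1 or empty vector and CMV-βgal, luciferase luminescence read in cell lysates alongside βgal activity.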 As to conditions: for fold induction at 10 µM: U2OS, read-out: Fold Induction with SFRP-1, U2OS cells, single dose 10 μM, luciferase reporter, fold induction over SFRP-1 control. On the technique in general: Reporter assays use an easily measured gene product as a stand-in for the process of interest.

The compound `O=S(=O)(NCC1CCNCC1)c1cc(S(=O)(=O)c2ccccc2)ccc1C(F)(F)F` [Example 899, 5-(phenylsulfonyl)-N-(piperidin-4-ylmethyl)-2-(trifluoromethyl)benzenesulfonamide] yielded an IC50 on SFRP-1 [1] of 300 nM. Further, on SFRP-1 [2], the EC50 came to 894 nM and the fold induction at 10 µM came to 4.2.

Take `O=S(=O)(NC1Cc2ccccc2C1O)c1cc(S(=O)(=O)c2ccccc2)ccc1C(F)(F)F` (stereo not shown) [Example 900, N-(1-hydroxy-2,3-dihydro-1H-inden-2-yl)-5-(phenylsulfonyl)-2-(trifluoromethyl)benzenesulfonamide]: the IC50 at SFRP-1 [1] is 80 nM. Moreover, the fold induction at 10 µM on SFRP-1 [2] came out at 4.1.

For `CC(C)(C)OC(=O)N[C@H]1CC[C@H](NS(=O)(=O)c2cc(S(=O)(=O)c3ccccc3)ccc2C(F)(F)F)CC1` [Example 901, tert-butyl [trans-4-({[5-(phenylsulfonyl)-2-(trifluoromethyl)phenyl]sulfonyl}amino)cyclohexyl]carbamate], the IC50 on SFRP-1 [1] came to 450 nM. At SFRP-1 [2], the EC50 turned out to be 224 nM and the fold induction at 10 µM was determined as 3.4.

For `O=C(O)CCC(=O)N1CCC(CNS(=O)(=O)c2cc(S(=O)(=O)c3ccccc3)ccc2C(F)(F)F)CC1` [Example 902, 4-oxo-4-{4-[({[5-(phenylsulfonyl)-2-(trifluoromethyl)phenyl]sulfonyl}amino)methyl]piperidin-1-yl}butanoic acid], at SFRP-1 [1], the IC50 worked out at 180 nM. Moreover, on SFRP-1 [2], a half-maximal effect (EC50) was put at 636 nM and the fold induction at 10 µM was 3.

At SFRP-1 [1], `O=C(O)CCCC(=O)N1CCC(CNS(=O)(=O)c2cc(S(=O)(=O)c3ccccc3)ccc2C(F)(F)F)CC1` [Example 903, 5-oxo-5-{4-[({[5-(phenylsulfonyl)-2-(trifluoromethyl)phenyl]sulfonyl}amino)methyl]piperidin-1-yl}pentanoic acid] returned an IC50 of 70 nM. In addition, on SFRP-1 [2], the EC50 is 795 nM and the fold induction at 10 µM amounted to 3.5.

Consider `O=C(O)c1cccc(S(=O)(=O)N2CCC(CNS(=O)(=O)c3cc(S(=O)(=O)c4ccccc4)ccc3C(F)(F)F)CC2)c1` [Example 904, 3-({4-[({[5-(phenylsulfonyl)-2-(trifluoromethyl)phenyl]sulfonyl}amino)methyl]piperidin-1-yl}sulfonyl)benzoic acid], for which the IC50 at SFRP-1 [1] came to 60 nM. On SFRP-1 [2], the midpoint of the response, the EC50, lay at 700 nM and the fold induction at 10 µM amounted to 3.5.

Compound `CN(CCO)CCNS(=O)(=O)c1cc(S(=O)(=O)c2ccccc2)ccc1C(F)(F)F` [Example 905, N-{2-[(2-hydroxyethyl)(methyl)amino]ethyl}-5-(phenylsulfonyl)-2-(trifluoromethyl)benzenesulfonamide] came in with a half-inhibitory concentration (IC50) on SFRP-1 [1] of 2600 nM. Moreover, at SFRP-1 [2], a half-maximal effect (EC50) was put at 3660 nM and the fold induction at 10 µM was determined as 1.5.

Consider `COC(=O)CN(C)CCNS(=O)(=O)c1cc(S(=O)(=O)c2ccccc2)ccc1C(F)(F)F` [Example 906, methyl N-methyl-N-[2-({[5-(phenylsulfonyl)-2-(trifluoromethyl)phenyl]sulfonyl}amino)ethyl]glycinate], for which the concentration for half-maximal inhibition (IC50) at SFRP-1 [1] stood at 900 nM. In addition, on SFRP-1 [2], it took 1340 nM to reach a half-maximal effect (EC50) and the fold induction at 10 µM is 2.9.

For the compound `CCOC(=O)CCN(C)CCNS(=O)(=O)c1cc(S(=O)(=O)c2ccccc2)ccc1C(F)(F)F` [Example 907, ethyl N-methyl-N-[2-({[5-(phenylsulfonyl)-2-(trifluoromethyl)phenyl]sulfonyl}amino)ethyl]-β-alaninate], the IC50 on SFRP-1 [1] was 900 nM. For the same compound, the fold induction at 10 µM at SFRP-1 [2] was 2.2.

`CCc1ccc(S(=O)(=O)c2ccccc2)cc1S(=O)(=O)NC1CCN(C(=O)OC(C)(C)C)CC1` [Example 909, tert-butyl 4-({[2-ethyl-5-(phenylsulfonyl)phenyl]sulfonyl}amino)piperidine-1-carboxylate] had a half-inhibitory concentration (IC50) on SFRP-1 [1] of 1000 nM. Besides, at SFRP-1 [2], the EC50 was determined as 2580 nM and the fold induction at 10 µM worked out at 2.3.

Compound `Cc1cc(C)c(S(=O)(=O)c2ccccc2)cc1S(=O)(=O)NC1CCN(C(=O)OC(C)(C)C)CC1` [Example 911, tert-butyl 4-({[2,4-dimethyl-5-(phenylsulfonyl)phenyl]sulfonyl}amino)piperidine-1-carboxylate] had an IC50 at SFRP-1 [1] of 4000 nM. Also, at SFRP-1 [2], the EC50 was found to be 2420 nM and the fold induction at 10 µM worked out at 1.9.

In the case of `CC(C)c1ccc(S(=O)(=O)c2ccccc2)cc1S(=O)(=O)NC1CCN(C(=O)OC(C)(C)C)CC1` [Example 912, tert-butyl 4-({[2-isopropyl-5-(phenylsulfonyl)phenyl]sulfonyl}amino)piperidine-1-carboxylate], the IC50 at SFRP-1 [1] was found to be 2100 nM. At SFRP-1 [2], the EC50 was determined as 1010 nM and the fold induction at 10 µM was determined as 2.4.

Turning to `O=S(=O)(NCCC1CCCN1)c1cc(S(=O)(=O)c2ccccc2)ccc1C(F)(F)F` (stereo not shown) [Example 913, 5-(phenylsulfonyl)-N-(2-pyrrolidin-2-ylethyl)-2-(trifluoromethyl)benzenesulfonamide], the half-maximal inhibitory concentration (IC50) at SFRP-1 [1] amounted to 3000 nM. On SFRP-1 [2], the EC50 was 7010 nM and the fold induction at 10 µM was 3.1.

As for `O=S(=O)(NC1CCN(S(=O)(=O)c2ccc(O)cc2)CC1)c1cc(S(=O)(=O)c2ccccc2)ccc1C(F)(F)F` [Example 914, N-{1-[(4-hydroxyphenyl)sulfonyl]piperidin-4-yl}-5-(phenylsulfonyl)-2-(trifluoromethyl)benzenesulfonamide], at SFRP-1 [1], the IC50 is 80 nM. Besides, on SFRP-1 [2], a half-maximal response (EC50) required 541 nM and the fold induction at 10 µM was 4.5.

Consider `O=C(O)CN1CCCC1CCNS(=O)(=O)c1cc(S(=O)(=O)c2ccccc2)ccc1C(F)(F)F` (stereo not shown) [Example 918, {2-[2-({[5-(phenylsulfonyl)-2-(trifluoromethyl)phenyl]sulfonyl}amino)ethyl]pyrrolidin-1-yl}acetic acid], for which the 50% inhibitory concentration (IC50) on SFRP-1 [1] is 4000 nM. Also, at SFRP-1 [2], the response was half-maximal at 2980 nM (EC50) and the fold induction at 10 µM came to 1.6.

On SFRP-1 [1], `O=C(O)CCC(=O)N1CCCC1CCNS(=O)(=O)c1cc(S(=O)(=O)c2ccccc2)ccc1C(F)(F)F` (stereo not shown) [Example 919, 4-oxo-4-{2-[2-({[5-(phenylsulfonyl)-2-(trifluoromethyl)phenyl]sulfonyl}amino)ethyl]pyrrolidin-1-yl}butanoic acid] returned a half-inhibitory concentration (IC50) of 1400 nM. Further, at SFRP-1 [2], a half-maximal response (EC50) required 5260 nM and the fold induction at 10 µM was 1.6.

Take `O=C(O)c1cccc(S(=O)(=O)N2CCCC2CCNS(=O)(=O)c2cc(S(=O)(=O)c3ccccc3)ccc2C(F)(F)F)c1` (stereo not shown) [Example 920, 3-({2-[2-({[5-(phenylsulfonyl)-2-(trifluoromethyl)phenyl]sulfonyl}amino)ethyl]pyrrolidin-1-yl)sulfonyl)benzoic acid]: the IC50 on SFRP-1 [1] amounted to 280 nM. On SFRP-1 [2], the 50% effective concentration (EC50) stood at 1810 nM and the fold induction at 10 µM was determined as 2.2.

Regarding `CCc1ccc(S(=O)(=O)c2ccccc2)cc1S(=O)(=O)NC1CCNCC1` [Example 921, 2-ethyl-5-(phenylsulfonyl)-N-piperidin-4-ylbenzenesulfonamide], the concentration for half-maximal inhibition (IC50) at SFRP-1 [1] was found to be 4000 nM. Also, at SFRP-1 [2], the midpoint of the response, the EC50, lay at 2360 nM and the fold induction at 10 µM was found to be 2.5.

For `Cc1cc(C)c(S(=O)(=O)c2ccccc2)cc1S(=O)(=O)NC1CCNCC1` [Example 923, 2,4-dimethyl-5-(phenylsulfonyl)-N-piperidin-4-ylbenzenesulfonamide], the IC50 on SFRP-1 [1] was found to be 10000 nM. At SFRP-1 [2], the concentration giving a half-maximal response (EC50) was determined as 1870 nM and the fold induction at 10 µM came to 2.4.

Usually IC50 stands for the concentration that inhibits the measured activity by half. Low readings indicate greater potency, high ones weaker potency. The EC50 is the midpoint of the concentration-response curve.
